The test system of data set [1] is Hgsnat^P304L MPS IIIC mice. Briefly: Open Field test. It counts as in vivo, mouse. The following applies: for Open Field behaviour in WT mice vs saline: chronic daily treatment. As for the experimental part: Method: Open field test that explores behaviour of animals in open area. Rodents normally avoid the center of the arena (anxiety reflex) and spend certain time immobile (freezing reflex). […]
The open-field test was performed as previously described. Briefly, mice were habituated in the experimental room for 45 mins before the commencement of the test. Each mouse was then gently placed in the center of the open-field arena and allowed to explore for 20 min. The mouse was removed and transferred to its home cage after the test, and the arena was cleaned with 70% ethanol before the commencement of the next test. Analysis of the behavioral activity was done using the Smart video tracking software (v3.0, Panlab Harvard Apparatus), and total distance traveled and percent of time spent in the center zone were measured for hyperactivity and anxiety assessment, respectively.
(§1) Starting from 3 weeks of age, WT C57B16 and homozygous Hgsnat^P304L male and female mice were randomly divided in treatment and control groups (6-13 mice/sex/genotype/treatment; see Table I). The control group was daily administered with saline (5 μL to each nostril), while for the treatment group, saline was supplemented with 125 µg of AVP6/mL, which would result in a dose of approximately 50 μg/kg BW/day. The peptide formulation was prepared once, aliquoted and kept frozen at −80° C. until use. At 4 months, all mice were studied by EPM, OF, YM and NOR behavioral tests. Administration of the drug or saline was continued through the days on which the assays were conducted. Then approximately at 5 months 4-5 mice in each group were sacrificed. Their blood plasma was collected, and their tissues were either snap-frozen or fixed and cryopreserved to analyze CNS pathology as described above. For the remaining mice, treatment was continued and their behaviour was studied again at the age of 6 months using OF. NOR and YM tests. Starting from the age of 8 months, Hgsnat^P304L treated and untreated mice were daily studied for the signs of urinary retention. When such signs were detected, the mice were studied by ERG and sacrificed within 1-2 days. Finally, the remaining treated and untreated WT mice were studied by ERG and sacrificed at the end of the study, approximately at 10 months of age.
We further tested if AVP6 can rescue neurobehavioral deficits associated with synaptic dysfunction in MPS IIIC mice. The early phase of the disease in both Hgsnat-Geo and Hgsnat^P304L mice manifests with reduced anxiety and hyperactivity. Specifically, in an Open Field (OF) test at both 4 months and 6 months, Hgsnat^P304L mice show a significant increase in a total distance traveled, increased time spent at the center of the arena and increased distance traveled in the center of the arena as compared with the WT animals. […] […] Control groups were treated with the same volume of saline.

In data set [2] the test system is Hgsnat^P304L and Hgsnat-Geo MPS IIIC mice. As to the kind of experiment: Elevated Plus Maze test. It counts as in vivo, mouse. As for the experimental part: Method: Elevated plus maze that measures a natural fear of heights reflex of animals. AVP6 was administered intranasally at 50 μg/kg (5 μl/nostril) to the animals 17 h before the experiment.
The elevated plus-maze test was performed as follows. Each mouse was placed in the center of the elevated plus maze and allowed to freely explore undisturbed for 10 min. After each testing, the mouse was returned to the home cage and the arena was cleaned with 70% ethanol before the commencement of the next test. Analysis of the behavioral activity (percentage of time spent in the center zone, closed arms, and open arms; as well as the number of open arm entries) was done by the Smart v3.0 software.
as §1

Data set [3] has as its system CA1 pyramidal neurons in acute hippocampal slices from Hgsnat^Geo mice. As to the kind of experiment: Miniature inhibitory postsynaptic currents (mIPSC), whole cell voltage clamp in acute hippocampal slices. Type of data set: cell-based, mouse. The following applies: 10 μM bath application, P14-20. The protocol:
Method: Whole cell voltage clamp electrophysiology recordings (miniature synaptic currents) were conducted on CA1 pyramidal neurons in acute hippocampal slices.
Acute hippocampal slices were prepared as follows. Briefly, animals were anaesthetized deeply with isoflurane and decapitated. The brain was dissected carefully and transferred rapidly into an ice-cold (0-4° C.) solution containing the following (in mM): 250 sucrose, 2 KCl, 1.25 NaH2PO4, 26 NaHCO3, 7 MgSO4, 0.5 CaCl2 and 10 glucose, pH 7.4. […] Whole-cell patch-clamp recordings were obtained from single cells in voltage- or current-clamp mode and only 1 cell per slice was recorded to enable post-hoc identification and immunohistochemical processing. […]
After obtaining whole cell configuration, passive membrane properties were monitored for 5 min and current clamp recordings were done to measure action potential characteristics. […] Cells were voltage clamped at −70 mV for mEPSCs recording and then held at 0 mV (calculated from the reversal potential of Cl) for mIPSCs recording. […] Both mEPSCs and mIPSCs were recorded for 7 min and a running template on a stable baseline (minimum of 30 events) was used for the analysis of miniature events on MiniAnalysis. […]

Data set [4] can be described thus: Body weight measured weekly during chronic administration. It counts as in vivo, mouse. The following applies: chronic intranasal administration; Hgsnat^P304L or WT mice. As for the experimental part: WT, and Hgsnat^P304L mice were randomly assigned to the treatment and control groups. The cohort size (18 mice/sex/treatment) was calculated based on mean variability of replicates in previous behavioral tests in Hgsnat^P304L mice to detect a ˜40% difference between means (power=0.8). Treatment was started at weaning (P21) which corresponds to neurodevelopmental human age of 3 years, the time of disease onset for majority of Sanfilippo patients. Since most patients are diagnosed post-symptomatically, this age would most likely become the treatment starting point for the most of patients. […] To test if chronic administration of the peptide results in major metabolic changes, the mouse body weight was measured weekly.

[5] abbreviates: chronic daily intranasal 50 μg/kg BW from 3 weeks, Hgsnat^P304L male and female mice at 4 months.
[6] abbreviates: chronic daily intranasal 50 μg/kg BW from 3 weeks, Hgsnat^P304L mice at 6 months.
Setting [7] is: single intranasal 50 μg/kg 17 h before test, Hgsnat^P311L (P304L) mice, 4 and 6 months.

Entries after “also recorded” stand apart in the source; their conditions may differ. No end group written: not given here.

Consider “AVP6: N-terminally acetylated Semax, a nootropic peptide having the amino acid sequence of MEHFPGP (SEQ ID NO:1) (Ac-MEHFPGP)”, for which the “hyperactivity (total distance traveled), Open Field” value in data set [1] (setting [5]) is “showed absence of these phenotypes; also recorded: show the rescue of all above deficits”; in data set [1] (setting [6]) it was “significantly reduced; also recorded: show rescue of all above deficits”; in data set [1] (setting [7]), “rescues hyperactivity; also recorded: the total traveled distance was reduced; also recorded: Both parameters are normalized”. Also, the “reduced anxiety (time spent in the center), Open Field” value is on record as “showed absence of these phenotypes; also recorded: show the rescue of all above deficits” in data set [1] (setting [5]) and “significantly reduced; also recorded: show rescue of all above deficits” in data set [1] (setting [6]). Further, the “Open Field behaviour in WT mice vs saline” value in data set [1] (WT mice at 4 months) was “no difference was observed”; in data set [1] (WT mice at 6 months) it was “No difference in behaviour was observed”. Moreover, in data set [1] (setting [7]), the “reduced anxiety (time spent / distance traveled in the center), Open Field” value is “rescues hyperactivity and reduced anxiety; also recorded: time spend in the center increased; also recorded: Both parameters are normalized”. Also, the “reduced fear (open arm entries, time in open arms), Elevated Plus Maze” value in data set [2] (chronic daily intranasal 50 μg/kg BW from 3 weeks, Hgsnat^P304L mice at 4 months) is listed as “showed no difference from their WT counterparts; also recorded: show the rescue of all above deficits”. For the same substance, the “Elevated Plus Maze parameters in WT mice” value in data set [2] (chronic daily treatment, WT mice at 4 months) is given as “no effect of the drug was detected in the WT mice”. Also, in data set [2] (single intranasal 50 μg/kg 17 h before test, Hgsnat-Geo mice, 6 months), the “reduced fear/anxiety, Elevated Plus Maze” value is reported as “showed a behavior similar to their WT counterparts; also recorded: also rescues reduced anxiety in EPM test”. For the same substance, in data set [2] (single intranasal 50 μg/kg 17 h before test, Hgsnat^P311L (P304L) mice, 4 months), the “reduced fear (time spent in open arms, number of open arm entries), Elevated Plus Maze” value is “rescues reduced fear; also recorded: showed a behavior similar to their WT counterparts; also recorded: Both parameters are normalized”. Also, the “mIPSC amplitude and frequency deficits” value in data set [3] is “did not recover deficits in mIPSC amplitude and frequency; also recorded: did not increase frequencies or amplitudes of mIPSC; also recorded: does not increase”. In data set [4], the “body weight and body weight gain, treated vs untreated” value is “No difference in body weight and body weight gain”.

Values taken from patent US20240043473A1, “NOOTROPIC PEPTIDES FOR TREATING LYSOSOMAL STORAGE DISEASES” (Phoenix Nest Inc., priority 2021, published 2024).
